{
  "source": "ChEMBL document CHEMBL1201862",
  "about": "“PubChem BioAssay data set” (2004)",
  "key": {"[1]": {"molecular_target": "5-hydroxytryptamine receptor 1A (Homo sapiens, UniProt P08908)", "sequence (P08908 whole entry)": "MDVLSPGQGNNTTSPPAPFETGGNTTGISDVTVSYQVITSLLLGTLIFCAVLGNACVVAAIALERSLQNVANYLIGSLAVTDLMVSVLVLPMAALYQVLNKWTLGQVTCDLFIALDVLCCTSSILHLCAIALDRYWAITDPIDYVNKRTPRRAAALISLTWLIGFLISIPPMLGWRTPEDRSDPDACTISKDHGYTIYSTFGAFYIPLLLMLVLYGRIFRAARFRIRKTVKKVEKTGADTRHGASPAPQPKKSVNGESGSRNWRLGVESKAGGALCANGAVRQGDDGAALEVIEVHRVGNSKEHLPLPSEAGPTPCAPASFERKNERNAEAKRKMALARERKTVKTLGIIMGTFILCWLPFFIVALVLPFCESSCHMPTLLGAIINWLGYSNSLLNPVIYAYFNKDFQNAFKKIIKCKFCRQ", "format": "functional"}, "[2]": {"molecular_target": "Lytic switch protein BZLF1 (Epstein-Barr virus (strain B95-8) (HHV-4) (Human herpesvirus 4), UniProt P03206)", "sequence (P03206 whole entry)": "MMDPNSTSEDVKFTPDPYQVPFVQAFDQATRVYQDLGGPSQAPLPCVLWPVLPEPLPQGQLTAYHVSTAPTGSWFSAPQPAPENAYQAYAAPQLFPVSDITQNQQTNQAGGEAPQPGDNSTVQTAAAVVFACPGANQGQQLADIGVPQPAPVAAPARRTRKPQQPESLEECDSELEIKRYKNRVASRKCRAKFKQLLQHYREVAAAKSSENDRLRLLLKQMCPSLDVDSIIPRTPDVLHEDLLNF", "assay": "inhibition of BZLF1 ZTA DNA binding – biochemical, fluorescence polarization, Epstein-Barr virus, 1536-well, counter-screen for EBNA-1 inhibitor project, dose response (AID 2377);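 note: fluorescence polarization of Cy5-labelled ZRE DNA probe bound by purified Zta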", "set-up": "species or system human gammaherpesvirus 4"}, "[3]": {"molecular_target": "Epstein-Barr nuclear antigen 1 (Epstein-Barr virus (strain B95-8) (HHV-4) (Human herpesvirus 4), UniProt P03211)", "sequence (P03211 whole entry)": "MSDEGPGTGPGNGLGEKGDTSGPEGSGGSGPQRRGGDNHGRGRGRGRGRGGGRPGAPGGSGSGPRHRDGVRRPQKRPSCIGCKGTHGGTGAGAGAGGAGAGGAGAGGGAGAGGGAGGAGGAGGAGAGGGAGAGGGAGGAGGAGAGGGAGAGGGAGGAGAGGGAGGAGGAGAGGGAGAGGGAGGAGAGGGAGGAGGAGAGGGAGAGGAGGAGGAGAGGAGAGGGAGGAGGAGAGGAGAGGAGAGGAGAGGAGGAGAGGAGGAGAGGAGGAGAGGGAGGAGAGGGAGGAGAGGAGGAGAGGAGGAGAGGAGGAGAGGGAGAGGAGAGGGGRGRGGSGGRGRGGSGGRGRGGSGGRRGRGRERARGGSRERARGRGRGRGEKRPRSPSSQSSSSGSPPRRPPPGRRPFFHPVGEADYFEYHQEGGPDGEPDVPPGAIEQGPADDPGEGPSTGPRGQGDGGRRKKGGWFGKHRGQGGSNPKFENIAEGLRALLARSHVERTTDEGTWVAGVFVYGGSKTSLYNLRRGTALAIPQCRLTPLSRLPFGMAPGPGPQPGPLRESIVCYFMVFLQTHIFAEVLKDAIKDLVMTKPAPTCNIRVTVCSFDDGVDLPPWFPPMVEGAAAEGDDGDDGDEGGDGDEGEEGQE", "assay": "inhibition of EBV nuclear antigen 1 DNA binding – biochemical, fluorescence polarization, 1536-well, dose response (AID 2381)", "set-up": "species or system human gammaherpesvirus 4"}, "[4]": {"assay": "NIH-3T3 fibroblast cytotoxicity, dose response, cytotoxicity control, cell-based, fluorescence, Alamar Blue, secondary assay (AID 2327);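 note: NIH-3T3 mouse fibroblasts cultured with fluconazole at 8 µg/mL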", "format": "functional"}, "[5]": {"molecular_target": "Voltage-gated inwardly rectifying potassium channel KCNH2 (Homo sapiens, UniProt Q12809)", "sequence (Q12809 whole entry)": "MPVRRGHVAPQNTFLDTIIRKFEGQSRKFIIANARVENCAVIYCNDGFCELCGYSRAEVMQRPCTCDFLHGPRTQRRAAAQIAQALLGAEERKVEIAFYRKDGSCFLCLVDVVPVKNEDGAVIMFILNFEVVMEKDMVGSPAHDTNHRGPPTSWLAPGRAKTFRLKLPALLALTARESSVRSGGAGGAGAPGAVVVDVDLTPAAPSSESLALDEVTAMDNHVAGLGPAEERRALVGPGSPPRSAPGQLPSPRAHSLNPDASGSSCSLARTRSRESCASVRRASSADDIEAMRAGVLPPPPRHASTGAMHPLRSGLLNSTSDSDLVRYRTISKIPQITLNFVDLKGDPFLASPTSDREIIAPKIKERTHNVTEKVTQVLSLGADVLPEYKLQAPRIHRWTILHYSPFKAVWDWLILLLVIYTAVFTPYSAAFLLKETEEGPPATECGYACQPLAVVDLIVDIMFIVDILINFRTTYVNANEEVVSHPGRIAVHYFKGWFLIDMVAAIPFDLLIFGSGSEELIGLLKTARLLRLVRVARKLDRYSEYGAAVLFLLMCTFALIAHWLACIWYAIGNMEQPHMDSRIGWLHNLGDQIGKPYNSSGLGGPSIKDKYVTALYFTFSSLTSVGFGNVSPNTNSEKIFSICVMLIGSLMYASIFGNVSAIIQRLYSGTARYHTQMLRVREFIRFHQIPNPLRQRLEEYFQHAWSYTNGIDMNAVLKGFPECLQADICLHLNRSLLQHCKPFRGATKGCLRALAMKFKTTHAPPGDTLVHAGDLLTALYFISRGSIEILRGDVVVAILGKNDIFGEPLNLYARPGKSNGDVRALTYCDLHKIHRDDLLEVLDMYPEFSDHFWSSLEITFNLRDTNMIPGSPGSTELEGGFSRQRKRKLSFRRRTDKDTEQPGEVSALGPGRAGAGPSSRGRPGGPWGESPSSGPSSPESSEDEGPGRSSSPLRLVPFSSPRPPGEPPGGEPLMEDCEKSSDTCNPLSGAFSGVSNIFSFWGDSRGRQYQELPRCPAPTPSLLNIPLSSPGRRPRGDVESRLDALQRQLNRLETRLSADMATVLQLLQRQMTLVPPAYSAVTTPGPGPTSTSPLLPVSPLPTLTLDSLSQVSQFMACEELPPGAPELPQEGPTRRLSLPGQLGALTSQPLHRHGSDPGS", "assay": "concentration-dependent hERG rescue from blockers – cell-based, thallium flux, dose response (AID 2121)", "format": "ADME"}, "Streptococcus": {"system": "Streptococcus", "assay": "GAS UMAA2166 growth inhibition – luminescence, BacTiterGlo, counter-screen for streptokinase expression inhibitor project, dose response (AID 1915);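 note: potency for reduction of bacterial viability or growth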", "format": "functional, organism-based"}, "Beta-galactosidase": {"molecular_target": "Beta-galactosidase (Escherichia coli, UniProt Q8VNN2)", "sequence (Q8VNN2 whole entry)": "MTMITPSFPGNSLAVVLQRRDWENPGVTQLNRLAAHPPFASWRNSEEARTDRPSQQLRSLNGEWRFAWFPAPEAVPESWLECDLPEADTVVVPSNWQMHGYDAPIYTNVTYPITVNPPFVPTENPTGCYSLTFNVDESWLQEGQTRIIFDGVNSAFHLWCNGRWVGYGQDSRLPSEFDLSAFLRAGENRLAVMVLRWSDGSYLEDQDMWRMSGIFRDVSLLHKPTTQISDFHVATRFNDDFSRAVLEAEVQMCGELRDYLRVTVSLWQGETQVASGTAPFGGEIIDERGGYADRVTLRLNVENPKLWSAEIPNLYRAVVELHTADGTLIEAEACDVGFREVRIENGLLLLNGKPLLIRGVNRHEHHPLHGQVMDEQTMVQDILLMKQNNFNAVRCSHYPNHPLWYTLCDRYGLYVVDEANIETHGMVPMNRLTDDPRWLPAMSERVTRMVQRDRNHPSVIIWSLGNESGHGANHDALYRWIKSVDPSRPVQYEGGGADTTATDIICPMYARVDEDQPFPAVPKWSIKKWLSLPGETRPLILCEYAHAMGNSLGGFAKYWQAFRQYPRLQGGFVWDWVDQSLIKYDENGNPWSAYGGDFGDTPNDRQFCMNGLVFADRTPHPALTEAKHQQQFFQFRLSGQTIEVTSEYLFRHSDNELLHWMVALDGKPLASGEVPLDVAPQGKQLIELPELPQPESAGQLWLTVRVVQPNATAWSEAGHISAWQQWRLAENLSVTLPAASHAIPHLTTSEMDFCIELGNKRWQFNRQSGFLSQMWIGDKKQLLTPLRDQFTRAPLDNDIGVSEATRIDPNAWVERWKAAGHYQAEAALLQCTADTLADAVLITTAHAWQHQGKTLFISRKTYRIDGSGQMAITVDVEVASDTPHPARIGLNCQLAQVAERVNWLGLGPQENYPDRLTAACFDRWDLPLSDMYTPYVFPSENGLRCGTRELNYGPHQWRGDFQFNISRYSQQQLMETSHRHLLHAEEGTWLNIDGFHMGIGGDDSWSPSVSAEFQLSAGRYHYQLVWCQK", "assay": "detection-enzyme interference by beta-gal modulators – biochemical, E. coli enzyme, set 3, artefact control for CCR6 antagonist project, dose response (AID 504712)", "format": "functional"}, "[6]": {"system": "Streptococcus sp. 'group A'", "assay": "Streptococcus pyogenes SK(-)GAS viability under kanamycin – luminescence, BacTiterGlo, confirmation, counter-screen for streptokinase expression inhibitor project, dose response (AID 1900)", "format": "functional, organism-based"}, "[7]": {"assay": "luciferase reporter signal suppression in cells – H4 neuroglioma cells, luminescence, dose response (AID 1990)", "format": "functional, cell-based"}, "[8]": {"assay": "microbe, parasite or virus in culture", "format": "functional", "details": "Mycobacterium tuberculosis"}, "[9]": {"assay": "fluconazole-exposed Candida albicans growth modulators – fluorescence, retest, confirmation (AID 2467)", "format": "functional, cell-based"}, "[10]": {"assay": "alpha-synuclein stem-loop luciferase translation blockers – H4 neuroglioma cells, luminescence, confirmation (AID 1988)", "format": "functional, cell-based"}, "[11]": {"assay": "Luminescence Cell-Based Dose Response HTS to Identify Inhibitors of 5'UTR Stem-Loop Driven Prion Protein mRNA Translation in H4 Neuroglioblastoma Cells. [Related pubchem assays: 1827 (Project Summary), 1813 (Primary HTS)]", "format": "functional"}, "Vero": {"system": "Vero", "assay": "viability of Vero cells under compound – cytotoxicity control for flavivirus capping enzyme inhibitors (AID 588742)", "format": "functional", "details": "Chlorocebus sabaeus"}, "[12]": {"assay": "Luminescence Cell-Based Dose Confirmation to Identify Activators of 5'UTR Stem-Loop Driven Alpha-Synuclein mRNA Translation in H4 Neuroglioblastoma Cells. [Related pubchem assays: 1829 (Project Summary), 1814 (Primary HTS)]", "format": "functional"}, "H4": {"system": "H4", "assay": "Luminescence Cell-Based Dose Response HTS to Identify Activators of 5'UTR Stem-Loop Driven Prion Protein mRNA Translation in H4 Neuroglioblastoma Cells. [Related pubchem assays: 1829 (Project Summary), 1814 (Primary HTS)]", "format": "functional", "details": "Homo sapiens"}, "[13]": {"assay": "Luminescence Cell-Based Dose Response to Identify Activators of 5'UTR Stem-Loop Driven Prion Protein mRNA Translation in H4-C Neuroglioblastoma Cells. [Related pubchem assays: 1829 (Project Summary), 1814 (Primary HTS)]", "format": "functional"}, "[14]": {"assay": "Luminescence Cell-Based Dose Confirmation HTS to Identify Activators of 5'UTR Stem-Loop Driven Alpha-Synuclein mRNA Translation in H4 Neuroglioblastoma Cells. [Related pubchem assays: 1829 (Project Summary), 1814 (Primary HTS)]", "format": "functional"}, "[15]": {"assay": "Luminescence Cell-Based Dose Response HTS to Identify Activators of Luciferase Translation or Activity in H4 […] Cells. [Related pubchem assays: 1829 (Project Summary), 1814 (Primary HTS)]", "format": "functional"}, "[16]": {"assay": "Luminescence Cell-Based Dose Response to Identify Activators of Luciferase Translation or Activity in H4-C Neuroglioblastoma Cells. [Related pubchem assays: 1829 (Project Summary), 1814 (Primary HTS)]", "format": "functional"}, "Danio rerio": {"system": "Danio rerio", "assay": "In Vivo Angiogenesis Dose-Response Confirmation. [Related pubchem assays: 732 (Assay preceding this confirmatory assay.)]", "format": "functional, organism-based"}, "Procathepsin L": {"molecular_target": "Procathepsin L (Homo sapiens, UniProt P07711)", "sequence (P07711 whole entry)": "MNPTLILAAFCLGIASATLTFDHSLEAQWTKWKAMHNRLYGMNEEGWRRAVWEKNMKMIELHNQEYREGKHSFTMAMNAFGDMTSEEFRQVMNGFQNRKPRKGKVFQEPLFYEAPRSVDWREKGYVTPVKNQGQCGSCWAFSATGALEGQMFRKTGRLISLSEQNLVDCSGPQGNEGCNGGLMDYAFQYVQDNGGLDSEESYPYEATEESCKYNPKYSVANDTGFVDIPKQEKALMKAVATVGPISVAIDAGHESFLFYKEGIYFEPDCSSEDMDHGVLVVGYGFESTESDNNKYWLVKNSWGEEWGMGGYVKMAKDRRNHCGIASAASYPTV", "assay": "CTSL1 protease inhibition – biochemical, QFRET, 1536-well, counter-screen for M1/M17 aminopeptidase inhibitor project, dose response (AID 2214)"}, "[17]": {"assay": "HIV-1 Vif–A3G interaction blockers – biochemical, TR-FRET, GST-Vif 1-94, biotin-A3G peptide, dose response retest, primary screen (AID 1117319);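 note: inhibitors lower the FRET signal by blocking Vif and A3G binding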", "format": "functional"}, "Aspartyl aminopeptidase": {"molecular_target": "T1, Aspartyl aminopeptidase (Plasmodium falciparum 3D7, UniProt Q8I2J3)", "T1 sequence (Q8I2J3 whole entry)": "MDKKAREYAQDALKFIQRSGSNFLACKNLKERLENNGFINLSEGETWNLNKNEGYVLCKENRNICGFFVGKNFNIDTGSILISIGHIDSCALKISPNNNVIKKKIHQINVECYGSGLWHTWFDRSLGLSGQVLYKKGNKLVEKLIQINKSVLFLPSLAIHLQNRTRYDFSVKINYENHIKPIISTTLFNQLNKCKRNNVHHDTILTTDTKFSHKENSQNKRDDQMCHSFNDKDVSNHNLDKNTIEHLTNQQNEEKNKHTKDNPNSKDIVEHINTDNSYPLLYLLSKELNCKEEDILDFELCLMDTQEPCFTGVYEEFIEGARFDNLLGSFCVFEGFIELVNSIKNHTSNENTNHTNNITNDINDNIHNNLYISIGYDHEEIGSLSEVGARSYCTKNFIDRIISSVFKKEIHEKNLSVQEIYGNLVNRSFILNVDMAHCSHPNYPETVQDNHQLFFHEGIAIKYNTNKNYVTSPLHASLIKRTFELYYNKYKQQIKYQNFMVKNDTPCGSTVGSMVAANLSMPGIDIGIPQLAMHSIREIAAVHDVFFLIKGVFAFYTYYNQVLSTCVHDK", "assay": "Counterscreen for inhibitors of M1 and M17 aminopeptidases: QFRET-based biochemical high throughput dose response assay for inhibitors of the Plasmodium falciparum M18 Aspartyl Aminopeptidase (PFM18AAP). [Related PubChem assays: 1619 (Screening assay (M17LAP inhibitors).), 1445 (Screening assay (M1AAP inhibitors).)]"}, "[18]": {"assay": "viability loss in THP-1 monocytes – THP-1 cells, cytotoxicity control for Vif-APOBEC3G degradation inhibitor project, dose response (AID 1117359)", "format": "functional", "details": "THP-1"}, "[19]": {"molecular_target": "T2, Polyadenylate-binding protein 1 (Homo sapiens, UniProt P11940)", "T2 sequence (P11940 whole entry, the tested form may be a part)": "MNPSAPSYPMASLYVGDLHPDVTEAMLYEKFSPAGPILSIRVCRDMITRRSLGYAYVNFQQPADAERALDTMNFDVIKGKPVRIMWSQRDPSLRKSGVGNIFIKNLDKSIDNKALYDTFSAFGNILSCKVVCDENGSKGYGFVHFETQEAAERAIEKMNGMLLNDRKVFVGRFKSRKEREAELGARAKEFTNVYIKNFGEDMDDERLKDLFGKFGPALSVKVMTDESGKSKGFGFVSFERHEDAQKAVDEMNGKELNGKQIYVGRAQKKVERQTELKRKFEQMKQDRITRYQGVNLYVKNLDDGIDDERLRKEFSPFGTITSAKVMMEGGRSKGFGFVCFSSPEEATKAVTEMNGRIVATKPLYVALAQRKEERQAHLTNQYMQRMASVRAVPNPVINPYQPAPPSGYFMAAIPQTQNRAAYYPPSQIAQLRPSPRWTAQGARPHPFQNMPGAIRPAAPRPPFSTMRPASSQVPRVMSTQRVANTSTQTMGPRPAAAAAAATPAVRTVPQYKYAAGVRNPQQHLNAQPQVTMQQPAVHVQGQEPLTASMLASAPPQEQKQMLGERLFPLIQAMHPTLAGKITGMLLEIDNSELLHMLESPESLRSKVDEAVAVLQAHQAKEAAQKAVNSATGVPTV", "assay": "MLLE domain peptide-binding blockers, IC50 – biochemical, fluorescence polarization, FITC-PAM2 peptide, dose response (AID 602259)", "format": "functional", "details": "read-out: IC50_Mean"}, "[20]": {"molecular_target": "T2, Polyadenylate-binding protein 1", "assay": "MLLE binding blockers, Cy5 peptide tracer – biochemical, fluorescence polarization, Cy5-PAM2 peptide, secondary, miRNA deadenylation inhibitor project, dose response (AID 602260)", "format": "functional", "details": "read-out: IC50_Mean"}, "Leucine aminopeptidase": {"molecular_target": "T3, Leucine aminopeptidase (Plasmodium falciparum 3D7, UniProt Q8IL11)", "T3 sequence (Q8IL11 whole entry)": "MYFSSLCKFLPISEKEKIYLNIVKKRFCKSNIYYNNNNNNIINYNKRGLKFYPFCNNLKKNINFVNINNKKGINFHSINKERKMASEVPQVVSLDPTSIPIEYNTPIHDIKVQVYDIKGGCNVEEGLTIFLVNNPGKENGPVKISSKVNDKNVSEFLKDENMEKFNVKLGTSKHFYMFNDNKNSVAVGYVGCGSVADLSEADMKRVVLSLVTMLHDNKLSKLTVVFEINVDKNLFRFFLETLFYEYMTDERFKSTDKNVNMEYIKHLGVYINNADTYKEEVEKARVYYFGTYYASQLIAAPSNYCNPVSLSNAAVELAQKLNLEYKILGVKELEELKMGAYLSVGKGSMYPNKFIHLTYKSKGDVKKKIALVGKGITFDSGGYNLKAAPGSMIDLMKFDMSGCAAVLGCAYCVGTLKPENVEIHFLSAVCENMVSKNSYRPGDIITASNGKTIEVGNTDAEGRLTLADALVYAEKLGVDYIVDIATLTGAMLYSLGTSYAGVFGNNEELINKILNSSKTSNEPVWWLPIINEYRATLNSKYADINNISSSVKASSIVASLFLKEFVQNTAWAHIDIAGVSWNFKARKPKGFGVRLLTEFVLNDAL", "assay": "P. falciparum M17LAP inhibitors, primary screen, biochemical, fluorogenic H-Leu-NHMec substrate, 1536-well (AID 1619)", "format": "functional"}},
  "note": "Activity calls are given as the source filed them.",
  "data": [
    {"compound": "Cc1noc(C)c1COc1ccc(C(=O)OC(C)C(=O)Nc2ccc(N3CCOCC3)cc2)cc1", "note": "(centres undefined)", "values": [
      {"measurement": "EC50", "setting": "[1]", "result": "> 50 µM (not active)"}
    ]},
    {"compound": "O=C(N/C(=C/c1ccc(Br)cc1)c1nc2ccccc2[nH]1)c1ccco1", "values": [
      {"measurement": "IC50", "setting": "[2]", "result": "111 µM (not active)"},
      {"measurement": "IC50", "setting": "[3]", "result": "20 µM (not active)"}
    ]},
    {"compound": "CCc1ccc(/C=C/C(=O)c2cc(Br)ccc(=O)c2O)cc1", "values": [
      {"measurement": "EC50", "setting": "[4]", "result": "15.5 µM (inconclusive)"},
      {"measurement": "EC50", "setting": "[5]", "result": "1.15 µM (active)"},
      {"measurement": "EC50", "setting": "Streptococcus", "result": "2.6 µM (active)"},
      {"measurement": "IC50", "setting": "Beta-galactosidase", "result": "> 66.6 µM (inactive)"},
      {"measurement": "EC50", "setting": "[6]", "result": "1.8 µM (active)"},
      {"measurement": "EC50", "setting": "[7]", "result": "> 120 µM (not active)"},
      {"measurement": "CC50", "setting": "[8]", "result": "11.5 µM (active)"},
      {"measurement": "EC50", "setting": "[9]", "result": "1.52 µM (active)"},
      {"measurement": "EC50", "setting": "[10]", "result": "15.5 µM (active)"},
      {"measurement": "EC50", "setting": "[11]", "result": "15 µM (active)"},
      {"measurement": "CC50", "setting": "Vero", "result": "13.5 µM (active)"}
    ]},
    {"compound": "COc1ccc(/C=C2\\SC(=O)N(CCNC(=O)Cn3cnnn3)C2=O)cc1", "values": [
      {"measurement": "EC50", "setting": "[12]", "result": "0.926 µM (active)"},
      {"measurement": "EC50", "setting": "H4", "result": "0.122 µM (active)"},
      {"measurement": "EC50", "setting": "[13]", "result": "0.533 µM (active)"},
      {"measurement": "EC50", "setting": "[14]", "result": "2.28 µM (active)"},
      {"measurement": "EC50", "setting": "[15]", "result": "33.3 µM (active)"},
      {"measurement": "EC50", "setting": "[16]", "result": "0.405 µM (active)"}
    ]},
    {"compound": "Cc1cccc2c1NC(=O)/C2=C1\\Nc2ccccc2\\C1=N/OCCN1CCNCC1", "values": [
      {"measurement": "IC50", "setting": "Danio rerio", "result": "6.32 µM (active)"}
    ]},
    {"compound": "CNCCc1c[nH]c2ccccc12", "values": [
      {"measurement": "EC50", "setting": "[1]", "result": "5.1 µM (active)"}
    ]},
    {"compound": "Cc1c(O)n(-c2ccc(F)cc2)c(SCC(=O)Nc2ccc3c4c(cccc24)CC3)nc1=O", "values": [
      {"measurement": "IC50", "setting": "Procathepsin L", "result": "> 59.6 µM (not active)"},
      {"measurement": "IC50", "setting": "[17]", "result": "> 100 µM (active)"},
      {"measurement": "IC50", "setting": "Aspartyl aminopeptidase", "result": "> 73.5 µM (not active)"},
      {"measurement": "CC50", "setting": "[18]", "result": "> 40 µM (active)"},
      {"measurement": "IC50", "setting": "[19]", "result": "> 66 µM (inactive)"},
      {"measurement": "IC50", "setting": "[20]", "result": "> 66 µM (inactive)"},
      {"measurement": "IC50", "setting": "Leucine aminopeptidase", "result": "6.36 µM (active)"}
    ]}
  ]
}
